Measurements reported in US20220274967A1, “BCAT MODULATION” (Icagen, LLC, priority 2019, published 2022).

Legend:
BCAT1 = target: T1, BCAT1 (Homo sapiens, UniProt P54687); experiment: BCAT1 enzyme inhibition (human), Glutamate Glo luminescence; format: biochemical
T1 sequence (P54687 1-386): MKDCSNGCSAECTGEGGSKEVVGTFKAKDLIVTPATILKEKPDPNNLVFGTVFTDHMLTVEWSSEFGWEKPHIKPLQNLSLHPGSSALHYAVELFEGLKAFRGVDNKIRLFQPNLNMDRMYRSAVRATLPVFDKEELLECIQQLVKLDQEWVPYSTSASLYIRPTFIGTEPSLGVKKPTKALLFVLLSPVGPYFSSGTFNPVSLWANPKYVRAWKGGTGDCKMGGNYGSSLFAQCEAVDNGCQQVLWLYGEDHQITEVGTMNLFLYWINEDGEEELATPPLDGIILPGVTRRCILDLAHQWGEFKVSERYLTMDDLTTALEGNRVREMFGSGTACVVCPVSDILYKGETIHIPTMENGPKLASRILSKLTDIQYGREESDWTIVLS
Method: The BCAT1 inhibitory activity of selected compounds of the present disclosure were also evaluated. Compounds were prepared as up to 10 mM stock solutions generally using DMSO as the vehicle. 10-point dose response curves were generated using the Echo-550 (Labcyte) acoustic dispenser. Compound source plates ([…]) were made by serially diluting compound stocks to create 1 mM, 0.1 mM, and 0.01 mM solutions in DMSO into Echo certified LDV plates. The Echo then serially spotted 100% DMSO stock solutions into source dose response plates to generate a semi-log fold dilution scheme. 100% DMSO was added to the spotted dose response plates to bring the final volume to 5 μL, creating a 333× stock plate. 120 nL of the dose response stock plate was then spotted into the assay plate. 10 μL of assay buffer (50 mM Tris with 0.05% TWEEN-20) was then added to the plates resulting in a 4× working concentration in the assay plate. Final assay test concentration range was 3 μM to 0.0001 μM with a final DMSO concentration of 0.3%.
BCAT1 enzyme stock was first diluted to a 4× working concentration of 0.24 μg/mL in assay buffer (final assay concentration is 0.06 ug/ml). 10 μL of the 4×BCAT1 solution was then added to the previously prepared assay plate containing test compound or controls, and incubated at room temperature, protected from light, for either 10 or 60 minutes. After the compound incubation period, 20 μL of assay buffer plus 2× substrate is added to all wells (Final assay concentration of substrates is 300 μM L-leucine and 250 μM alpha-ketoglutaric acid). Enzyme reaction was then incubated for 10 minutes at room temperature. After the 10 minute incubation, the enzymatic reaction was halted with the addition of 5 μL of 0.6N HCl and incubated for 1 min. 5 μL of 1M Tris (pH 8.0) was then added to neutralize pH. 12.5 μL of the quenched assay volume was then transferred to a white, 384 well plate and 12.5 μL of Glutamate detection reagent was added (detection reagent prepared per Promega Glutamate Glo kit instructions). Plates were then incubated for 30 minutes at room temperature, protected from light. After glutamate detection incubation period, luminescence was read on BMG Novostar and relative light units was measured and exported for analysis.
Compound modulation of BCAT1 enzymatic activity was determined as follows. IC50 values were calculated in ActivityBase, using a 4-parameter fit equation. Data was normalized to maximum inhibition form the reference agent VS558CSA (at 10 μM). Relative light units were exported for analysis and % inhibition values for each well were calculated using the following formula: […]

GM00371 cells = experiment: Viability assay (Cell titer glo) in the 3-HIB assay; format: cell-based, human; conditions: Homo sapiens, 24 h, read-out: 3HIB INHIBITION IC50 (μM) MEAN GM00371 cells Viablility Assay
Method: Cell Plating: Cells (Coriell Institute GM00371 cells) were plated (96-well clear bottom sterile plate; Greiner 655098) at 10,000 cells/0.1 mL in Eagle's minimum essential medium (EMEM)/15% FBS (Gibco 16000-044) with a Combi dispenser in a cell culture hood and incubated at 37° C. and 5% CO2 overnight.
Compound Dilution: Compound were prepared as 33.3× intermediate dilution in DMSO in 96 well round polystyrene plates. For 30 μM final maximum start with 30 μL of 10 mM in DMSO. 10-12 1:3 serial dilutions were prepared from left to right (20 μL+40 μL DMSO). A 10× secondary dilution was prepare in EMEM by taking 7.5 μL 33.3× and transfer to replicate 96 well round polystyrene plates and then adding 242.5 μL EMEM A 1× final dilution in EMEM was prepared by taking 50 μL 10× dilution and transferring to replicate 96 well polypropylene assay block (Costar 3956) and adding 450 μL EMEM A control was prepared for maximal compound inhibition by taking 20 μL 10 mM Reference Compound A and adding 40 μL DMSO for a concentration of 3.3 mM To 7.5 μL of the 3.3 mM Reference Compound A solution and added 242.5 μL EMEM to make a 100 μM solution. The subsequent Reference Compound A solution was diluted with EMEM to achieve a final concentration of 10 μM. The structure of Reference Compound A is:
A control was prepared for maximal compound toxicity by taking 7.5 μL Reference Compound B and 242.5 μL EMEM to make […]. 50 μL of that 100 μM Reference Compound B solution was combined with 450 μL EMEM to achieve a concentration of 30 μM. The structure of Reference Compound B is
Compound Treatment: Media was aspirated from the cells and 100 μL of D-PBS (ThermoFisher 14190144) was added and then removed. 100 μL of diluted compound was added to the cells in the place and the cells were incubated at 37° C. and 5% CO2 for 24 hours.
Viability Assay: To the cells remaining in the plate 25 μL D-PBS and 25 μL Cell titer glo reagent (Promega G7572). The plate was placed on a shaker for 2 minutes, incubated at room temperature in the dark and then read on a Clariostar microplate reader.

BCAT2 = target: T2, BCAT2 (Homo sapiens, UniProt O15382); experiment: BCAT2 enzyme inhibition (human); format: biochemical
T2 sequence (O15382 28-392): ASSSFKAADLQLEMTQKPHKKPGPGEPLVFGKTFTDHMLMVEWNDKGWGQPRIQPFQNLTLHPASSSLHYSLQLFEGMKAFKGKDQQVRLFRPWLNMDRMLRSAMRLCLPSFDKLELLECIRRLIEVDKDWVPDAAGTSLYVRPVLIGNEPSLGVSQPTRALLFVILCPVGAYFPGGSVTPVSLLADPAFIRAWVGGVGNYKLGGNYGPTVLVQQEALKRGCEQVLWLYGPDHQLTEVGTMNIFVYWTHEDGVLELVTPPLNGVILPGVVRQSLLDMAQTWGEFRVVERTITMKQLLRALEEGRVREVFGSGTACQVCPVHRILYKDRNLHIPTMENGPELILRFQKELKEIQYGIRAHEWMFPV
Method: In further embodiments, the functional modulation of BCAT2 is assayed using a cell-free assay. In various embodiments, the cell-free assay is an enzyme-coupled fluorescent assay. For example, the disclosure contemplates use of an assay that monitors the production of L-glutamate from branch-chain amino acids and α-ketoglutarate through the coupling of hBCATm activity to two additional enzymes, L-Glutamate Oxidase (L-GOx) and Horseradish Peroxidase (HRP). Specifically, L-GOx catabolizes L-glutamate to generate α-ketoglutarate and […], the latter being utilized by HRP and leading to the formation of fluorescent resorufin from the redox-sensitive dye Amplex Red. In some embodiments, the test compound is classified as a candidate compound if a decrease in L-glutamate is measured. In further embodiments, the test compound is classified as a candidate compound if a decrease in α-ketoglutarate is measured.

IC50 (BCAT1) [nM]	IC50 (BCAT2) [nM]	Structure (SMILES)	IC50 (GM00371 cells) [µM]
≥ 1000	< 100	CNC(=O)c1ccc2c(c1)nc(-c1ccccc1C(N)=O)n2[C@H]1CCC[C@@H](NC(=O)c2ccc(Br)s2)C1 [Compound 143]	≥ 1
500 to 1000	< 100	CNC(=O)c1ccc2c(c1)nc(-c1ccccc1OC(F)(F)F)n2[C@H]1CCC[C@@H](NC(=O)c2ccc(Br)s2)C1 [Compound 166]	0.1 to 0.5
≥ 1000	< 100	CNC(=O)c1ccc2c(c1)nc(-c1sccc1C)n2[C@H]1CCC[C@@H](NC(=O)c2ccc(Br)s2)C1 [Compound 169]	≥ 1
≥ 1000	< 100	CC(=O)c1ccc2c(c1)nc(-c1ccccn1)n2[C@H]1CCC[C@@H](NC(=O)c2ccc(Br)s2)C1 [Compound 196]	≥ 1
100 to 500	< 100	CNC(=O)c1ccc2c(c1)nc(-c1ncccc1F)n2[C@H]1CCC[C@@H](NC(=O)c2ccc(C#N)s2)C1 [Compound 198]	≥ 1
100 to 500	< 100	CNC(=O)c1ccc2c(c1)nc(-c1ccccc1[N+](=O)[O-])n2C1CCCC(NC(=O)c2ccc(C#N)s2)C1 (centres unmarked) [Compound 200]	≥ 1
100 to 500	< 100	CNC(=O)c1cc2nc(-c3ccccc3C)n([C@H]3CCC[C@@H](NC(=O)c4ccc(Cl)s4)C3)c2cc1F [Compound 205]	≥ 1
< 100	< 100	CNC(=O)c1cc2nc(-c3ccccc3F)n([C@H]3CCC[C@@H](NC(=O)c4ccc(Cl)s4)C3)c2cc1F [Compound 206]	0.1 to 0.5
100 to 500	< 100	CNC(=O)c1ccc2c(c1)nc(-c1ccccc1C(F)F)n2C1CCC[C@@H](NC(=O)c2ccc(C#N)s2)C1 (some centres unmarked) [Compound 221]	≥ 1
100 to 500	< 100	CNC(=O)c1ccc2c(c1)nc(-c1ccccc1C(F)F)n2C1CCC[C@@H](NC(=O)c2ccc(Cl)s2)C1 (some centres unmarked) [Compound 222]	0.1 to 0.5
< 100	< 100	CNC(=O)c1ccc2c(c1)nc(-c1ccccc1C(F)F)n2C1CCC[C@@H](NC(=O)c2ccc(Br)s2)C1 (some centres unmarked) [Compound 223]	0.1 to 0.5
100 to 500	< 100	CNC(=O)c1cc2nc(-c3cccc(F)c3)n(C3CCC[C@@H](NC(=O)c4ccc(Cl)s4)C3)c2cc1F (some centres unmarked) [Compound 224]	0.1 to 0.5
≥ 1000	< 100	CNC(=O)c1cc2nc(-c3cccc(F)c3)n(C3CCC[C@@H](NC(=O)c4ccc(F)s4)C3)c2cc1F (some centres unmarked) [Compound 225]	≥ 1
≥ 1000	100 to 500	CNC(=O)c1cc2nc(-c3ccccn3)n([C@H]3CCC[C@@H](NC(=O)c4ccc(Br)s4)C3)c2cc1Cl [Compound 238]	–
500 to 1000	< 100	CNC(=O)c1cc2nc(-c3ccccn3)n([C@H]3CCC[C@@H](NC(=O)c4ccc(Cl)s4)C3)c2cc1O [Compound 240]	–
≥ 1000	< 100	CNC(=O)c1ccc2c(c1)nc(-c1ccccn1)n2[C@H]1CCC[C@@H](NC(=O)c2sc(Br)cc2F)C1 [Compound 241]	–
≥ 1000	> 1000	CNC(=O)c1ccc2c(c1)nc(-c1ccccn1)n2[C@H]1CCC[C@@H](NC(=O)c2sc(Cl)cc2Cl)C1 [Compound 242]	–
≥ 1000	100 to 500	CNC(=O)c1ccc2c(c1)nc(-c1ccccn1)n2[C@H]1CCC[C@@H](NC(=O)c2sc(Cl)cc2OC)C1 [Compound 243]	–
≥ 1000	100 to 500	O=C(N[C@@H]1CCC[C@H](n2c(-c3ccccn3)nc3cccnc32)C1)c1ccc(Br)s1 [Compound 280]	–
< 100	< 100	CNC(=O)c1cc2nc(-c3ncccc3F)n([C@H]3CCC[C@@H](NC(=O)c4ccc(Cl)s4)C3)c2cn1 [Compound 286, 3-((1S,3R)-3-(5-chlorothiophene-2-carboxamido)cyclohexyl)-2-(3-fluoropyridin-2-yl)-N-methyl-3H-imidazo[4,5-c]pyridine-6-carboxamide]	–
≥ 1000	100 to 500	O=C(N[C@@H]1CCC[C@H](n2c(-c3ccccn3)nc3cnc(F)cc32)C1)c1ccc(Cl)s1 [Compound 288]	–
≥ 1000	100 to 500	O=C(N[C@@H]1CCC[C@H](n2c(-c3ccccn3)nc3ccncc32)C1)c1ccc(Br)s1 [Compound 294]	–
500 to 1000	< 100	O=C(N[C@@H]1CCC[C@H](n2c(-c3ncccc3F)nc3ccncc32)C1)c1ccc(Br)s1 [Compound 298]	–
500 to 1000	< 100	O=C(N[C@@H]1CCC[C@H](n2c(-c3ccccn3)nc3cnc(F)cc32)C1)c1ccc(Br)s1 [Compound 302]	–
≥ 1000	100 to 500	CNC(=O)c1ccn2c(C3CCCC(NC(=O)c4ccc(Br)s4)C3)c(-c3ccccc3)nc2c1 (centres unmarked) [Compound 303]	–
≥ 1000	< 100	N#Cc1cc2nc(-c3ccccc3C#N)n(C3CCCC(NC(=O)c4ccc(Br)s4)C3)c2cn1 (centres unmarked) [Compound 306]	–
